In paper PMC3463587, “A Series of Beta-Carboline Derivatives Inhibit the Kinase Activity of PLKs” (PLoS ONE, 2012):

How the values were obtained:
[1] = system: HepG2 cells; assay: MTT cell proliferation assay, HepG2; type: cell-based; settings: Homo sapiens, 48 hr
Description: (§1) BI2536 was purchased from Selleck (Selleck, USA).

[2] = system: MG63 cells; assay: MTT cell proliferation assay, MG63; type: cell-based; settings: Homo sapiens, MG-63, 48 hr
Description: as §1

[3] = system: HeLa cells; assay: MTT cell proliferation assay, HeLa; type: cell-based; settings: Homo sapiens, 48 hr
Description: as §1

[4] = system: PC3 cells; assay: MTT cell proliferation assay, PC3; type: cell-based; settings: Homo sapiens, PC-3, 48 hr
Description: as §1

[5] = system: four cancer cell lines (HepG2, MG63, HeLa and PC3); assay: Growth inhibition of four cancer cell lines; type: cell-based, Human
Description: In order to find more efficient antitumor small molecules targeting PLK1, we synthesized additional 18 beta-carboline compounds and the structures of these compounds are shown in Figure 1. The growth inhibition of four cancer cell lines (HepG2, MG63, HeLa and PC3) by these compounds was examined. […] We selected DH281, DH285 and DH287 for further studies.

[6] = system: wild-type yeast cells; assay: Yeast growth inhibition (MIC), wild-type; settings: 10 µg/ml, 25°C
Description: (§2) The Cdc5 kinase is the functional homologue of PLK1 in budding yeast and the incubation of cdc5-2 mutants at 37°C impairs the kinase activity and stops cell growth. […] We also compared the sensitivity of wild-type and cdc5-2 mutant cells to the selected compounds at different concentrations. […] The temperature sensitive cdc5-2 mutants and wild-type strains were used. […] After incubation at 25°C for 24 hr, the growth of the yeast cells was determined by measuring OD600.

[7] = system: cdc5-2 mutant yeast cells; assay: Yeast growth inhibition (MIC), cdc5-2 mutant; settings: 10 µg/ml, 25°C
Description: as §2

SMILES | IC50 [1] [µM] | IC50 [2] [µM] | IC50 [3] [µM] | IC50 [4] [µM] | antitumor activity (growth inhibition) [5] | growth of wild-type cells [6] | growth inhibition of cdc5-2 mutant cells [7]
Fc1ccc(Cn2c3ccccc3c3cc[n+](Cc4ccccc4)c(Cc4ccccc4)c32)cc1 [DH271] | 4.01 ± 0.1 | 5.97 ± 0.06 | 3.86 ± 0.44 | 8.38 ± 0.24 |  |  | 
Cc1nccc2c3ccc(OCc4ccc(F)cc4)cc3n(CCCc3ccccc3)c12 [DH279] | > 100 | > 100 | > 100 | > 100 | did not show obvious antitumor activity |  | 
Fc1ccc(C[n+]2ccc3c4ccccc4n(Cc4cccc(Cl)c4)c3c2)cc1 [DH275] | 10.4 ± 0.37 | 7.32 ± 0.22 | 5.83 ± 0.03 | 6.36 ± 0.11 |  |  | 
COc1ccc2c3ccnc(C)c3n(Cc3cccc(Cl)c3)c2c1 [DH145] | 68.45 ± 0.02 | 73.12 ± 0.31 | 40.5 ± 0.14 | 75.39 ± 0.16 | did not show obvious antitumor activity |  | 
c1ccc(CCCn2c3ccccc3c3cc[n+](Cc4ccccc4)cc32)cc1 [DH272] | 12.47 ± 0.12 | 12.8 ± 0.28 | 8.16 ± 0.37 | 22.1 ± 0.43 |  |  | 
CC[C@@H]1C(=O)N(C)c2cnc(Nc3ccc(C(=O)NC4CCN(C)CC4)cc3OC)nc2N1C1CCCC1 [BI2536, reference compound] |  |  |  |  |  | unaffected | complete growth inhibition
Clc1cccc(C[n+]2ccc3c4ccccc4n(CCCc4ccccc4)c3c2)c1 [DH273] | 5.08 ± 0.38 | 4.21 ± 0.45 | 3.77 ± 0.25 | 3.86 ± 0.12 |  |  | 
Clc1cccc(Cn2c3ccccc3c3cc[n+](Cc4cccc(Cl)c4)cc32)c1 [DH276] | 11.2 ± 0.22 | 7.3 ± 0.06 | 6.04 ± 0.17 | 6.65 ± 0.4 |  |  | 
Cc1nccc2c3ccc(OCc4cccc(Cl)c4)cc3n(CCCc3ccccc3)c12 [DH278] | > 100 | > 150 | 63.14 ± 0.47 | 80.21 ± 0.31 | did not show obvious antitumor activity |  | 
CCCCn1c2ccccc2c2cc(C(=O)NCCO)nc(C)c21 [DH286] | > 150 | 46.09 ± 0.37 | 65.81 ± 0.23 | 72.96 ± 0.53 | did not show obvious antitumor activity |  | 
Clc1cccc(Cn2c3ccccc3c3cc[n+](Cc4ccccc4)cc32)c1 [DH277] | 18.8 ± 0.29 | 20.4 ± 0.16 | 8.48 ± 0.23 | 10.8 ± 0.21 |  |  | 
Cc1c2c(cc[n+]1Cc1ccccc1)c1ccc(OCc3cccc(Cl)c3)cc1n2CCCc1ccccc1 [DH280] | 2.59 ± 0.16 | 1.86 ± 0.33 | 0.99 ± 0.14 | 2.34 ± 0.06 | very strong growth inhibition |  | 
Cc1nccc2c3ccc(OCc4ccccc4)cc3n(Cc3ccccc3)c12 [DH288] | > 100 | > 100 | > 100 | > 100 | did not show obvious antitumor activity |  | 
Fc1ccc(C[n+]2ccc3c4ccccc4n(CCCc4ccccc4)c3c2)cc1 [DH274] | 7.37 ± 0.26 | 6.38 ± 0.19 | 5.73 ± 0.18 | 6.07 ± 0.27 |  |  | 
